Several values for one entry are separate records, joined by “and”; a condition that tells them apart may be missing. Equal values may be shown once. Activity calls are given as the source filed them. No rule for the calls is given here.
Test: growth inhibition of yeast carrying parasite Hsp90, dose response, anti-malarial Hsp90 inhibitor project, ATP luminescence, 48 h, cherry-picked samples (AID 540268);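 as to activity change, negative = inhibition: 0% = neutral control wells and -100% = positive control wells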
Settings: yeast expressing the parasite Hsp90, ATP luminescence; for activity change, negative = inhibition: at 26 µM (top of the series)

Structure (SMILES)	AC50	activity change, negative = inhibition
Oc1c(CN2CCCCC2)cc(Br)c2cccnc12	2.95 µM	
CCCCOc1ccc(C(=O)NNC(=S)NC(=O)CC)cc1	4.2 µM	
CCCCC(=O)NC(c1ccccc1OC)c1ccc2cccnc2c1O (stereo not given)	4.45 µM	
CNc1ccc2oc(C[C@H]3O[C@@]4(CC[C@H]3C)O[C@H]([C@H](C)C(=O)c3ccc[nH]3)[C@H](C)C[C@H]4C)nc2c1C(=O)O	0.813 µM	
Cn1c(CNc2ccc(Cl)cc2)nnc1SCc1ccccc1	3.43 µM	
Cc1cc2ccccn2c1C(=O)c1ccc([N+](=O)[O-])o1	2.33 µM	
CC[C@H](C)/C=C(C)/C=C/C1=CC2=C(Cl)C(=O)[C@](C)(OC(C)=O)C(=O)C2=CO1	2.11 µM	
CC(=NNC(=S)N1CC2CCC(CC2)C1)c1ccncn1	2.36 µM	
O=C(N/N=C/c1sc2ccccc2c1O)c1ccccc1	1.13 µM	
CCCCC(=O)NC(c1ccccc1)c1ccc2cccnc2c1O (stereo not given)	23.6 µM	
COc1ccc2c(c1)OC[C@H]1[C@H]2N2C(=O)c3cc(Br)ccc3NC(=O)[C@@]2(C)[C@H]1c1ccccc1	0.658 µM	
Cc1ccc(S(=O)(=O)N(C(=O)c2ccncc2)c2ccc(OC(=O)c3ccncc3)cc2)c(C)c1	3.45 µM	
CN(C)c1ccc(/C=C/c2ccc3c4ccccc4ccc3[n+]2-c2ccccc2)cc1	3.47 µM	
O=S(=O)(/C=C/c1ccccc1)NC1CCCCCC1	4.16 µM	
O=C1C=CC(=O)N1c1ccc(Nc2ccccc2)cc1	< 0.195 µM	
Cc1cc(C2CCCCC2)n(O)c(=O)c1	1.19 µM	
CC1(C)CC[C@]2(C(=O)O)CC[C@]3(C)C(=CC[C@@H]4[C@@]5(C)CC[C@H](O[C@@H]6O[C@H](C(=O)O)[C@@H](O)[C@H](O[C@@H]7OC[C@H](O)[C@H](O)[C@H]7O)[C@H]6O)C(C)(C)[C@@H]5CC[C@]43C)[C@@H]2C1	1.06 µM	
CC1=CC(=O)C(C(C)C)=C/C1=N/OS(=O)(=O)c1ccccc1	3.09 µM	
CCc1sc(C(=O)Nc2nc(-c3ccccn3)cs2)cc1C	8.12 µM	
C[CH2][Hg][S]c1ccccc1C(=O)O	4.9 µM	
CC1=NOC(=O)/C1=C\c1ccc(-c2ccc(Br)cc2)o1	4.51 µM	
Cc1cccc(C)c1NC(=O)C(Cl)C(=O)c1ccccc1 (stereo not given)	1.11 µM	

Structure (SMILES)	AC50	activity change, negative = inhibition
CCOC(=O)C1=C(CC)Nc2ccccc2N=C1NC(=O)Nc1ccc(Cl)c(Cl)c1	1.43 µM	
COc1cc(SC)ccc1C(=O)Nc1nc2ccccc2[nH]1	1.96 µM	
COc1ccc(OC)c(N2C(=O)NC(=O)/C(=C\c3ccc([N+](=O)[O-])s3)C2=O)c1	5.48 µM	
CCCCCCCCCCCCCCCC[n+]1cccc(C(=O)N(CC)CC)c1	2.89 µM and 8.12 µM	
CC(=NNC(=S)N(Cc1ccccn1)Cc1ccccn1)c1cnccn1	3.95 µM	
O=S(=O)(NC1CCCCCC1)c1ccc(Br)s1	3.13 µM	
O=C1C2C3C=CC(C3)C2C(=O)N1CN(Cc1ccccc1)CN1C(=O)C2C3C=CC(C3)C2C1=O (stereo not given)	16.6 µM	
C=C(C)COc1ccc(-c2[nH]ncc2Oc2cccc(OC)c2)c(O)c1	8.1 µM	
CCn1c(CNc2ccc(Cl)cc2)nnc1SCc1ccc(C)cc1	8.23 µM	
COc1cc(C=NO)nc(-c2ccccn2)c1	2.32 µM	
CC(C)(C)C(=O)C(Cl)C(=O)Nc1ccccc1 (stereo not given)	1.06 µM	
O=c1c2c3c(sc2ncn1/N=C/c1ccc([N+](=O)[O-])o1)CCCC3	2.66 µM	
COc1ccc(NC(=O)/C(Cl)=C(/Cl)S(=O)Cc2ccccc2)cn1 (stereo not given)	2.54 µM	
O=C(O)/C=C/c1cn(-c2ccccc2)nc1-c1cc2ccccc2o1	16 µM	
COc1cc(OC)cc(N2C(=O)CC(N3CCC(C(=O)N4CCCCC4)CC3)C2=O)c1 (stereo not given)	8.21 µM	
Cc1cccc(NC(=S)NCC23C=CC(O2)C2C(=O)N(c4ccc(Cl)cc4)C(=O)C23)c1 (stereo not given)	8.4 µM	
O=C(Nc1nc(-c2ccccn2)cs1)c1ncc(Cl)c(Cl)c1Cl	2.9 µM	
O=C1C=CC2(O[C@H](c3ccccc3)[C@@H](c3ccccc3)O2)[C@H](Sc2ccccc2O)C1	3.46 µM	
COc1cc(N=Nc2ccc3ccccc3c2)ccc1O	8.61 µM	
COc1ccccc1OCCNC(=O)c1ccc(Br)cc1	< 0.195 µM	
CC(C)(C)c1cc(C(c2cccnc2)N2CCN(CCO)CC2)cc(C(C)(C)C)c1O (stereo not given)	25 µM	
Cc1cccc(C)c1OCC(=O)NNC(=S)NC(=O)C1CC1	1.35 µM	

Structure (SMILES)	AC50	activity change, negative = inhibition
CCN1/C(=C/c2ccc3cc(C)ccc3[n+]2CC)Sc2ccccc21	8.11 µM	
CCN(CC)c1ccc(C(=C2C=CC(=[N+](CC)CC)C=C2)c2ccc(N(CC)CC)cc2)cc1	0.735 µM	
Cc1ccc(NC(=O)c2cc(N3C(=O)C=CC3=O)ccc2N2CCOCC2)cc1	0.605 µM	
O=C(Nc1nc(-c2ccccc2)cs1)c1ccccc1NS(=O)(=O)c1ccc(F)cc1	4.09 µM	
C=CCn1c(C)cc(C(=O)CSc2nnc(NCc3ccccc3)s2)c1C	4.2 µM	
CC(C)c1ccc(-c2cc(C(=O)N3N=C(C(F)F)CC3(O)C(F)F)c3ccccc3n2)cc1 (stereo not given)	4.24 µM	
CCCCN1C(=O)/C(=C/C=C2\Oc3ccccc3N2CC)SC1=S		32.9% (inactive)
CC(C)CC(=O)/C(=C\c1ccc(Cl)cc1Cl)n1cncn1	1.75 µM	
COc1ccc2c(c1)OC[C@H]1[C@H]2N2C(=O)c3cc(OC)ccc3NC(=O)[C@@]2(C)[C@H]1c1ccccc1	24.7 µM	
COC(=O)c1ccc(NC(=O)c2nc(S(=O)(=O)Cc3cccc(C)c3)ncc2Cl)cc1	3.99 µM	
Cc1nn(-c2nc3ccccc3[nH]2)c(=O)c2ccccc12	1.84 µM	
CCCCCCC(=O)N(O)C1CC(=O)N(c2ccc(Cl)cc2)C1=O (stereo not given)	1.65 µM	
Oc1c(C(c2ccccc2Cl)N2CCCC2)ccc2cccnc12 (stereo not given)	3.51 µM	
CN1CCc2nc3sc(C(=O)C45CC6CC(CC(C6)C4)C5)c(N)c3cc2C1	0.502 µM	
COc1cc2cnc(-c3ccccc3)c(C(=O)c3ccc(F)cc3)c2cc1OC	3.01 µM	
CCN(CC)c1ccc(/C=C2/SC(=O)N(C(C)C)C2=O)o1	13.5 µM	
O=c1ccc(N=Nc2ccccc2)ccc1O	1.48 µM	
Cc1c(OCC(=O)C(C)(C)C)ccc2c(-c3ccccc3)cc(=O)oc12	8.35 µM	
O=C1CCCN1CCC1CCN(C2CC(=O)N(c3ccc(Cl)cc3)C2=O)CC1 (stereo not given)	4.79 µM	
COc1ccc(-c2nn(-c3ccccc3)cc2C(=O)N2CCN(S(=O)(=O)c3ccccc3[N+](=O)[O-])CC2)cc1	4.14 µM	
Nc1cccc(Oc2c(F)c(F)c(Oc3cccc(N)c3)c(F)c2F)c1	9.03 µM	
COc1ccc(/C=C/C(=O)NC(=S)NNC(=O)c2cnccn2)cc1	0.854 µM	

Structure (SMILES)	AC50	activity change, negative = inhibition
Cc1ccc(/C=C/C(=O)c2ccccc(=O)c2O)cc1C	8.01 µM	
CN(CC(=O)Nc1cccc(F)c1)C(=O)c1cn(-c2ccccc2)nc1-c1ccc(Cl)cc1	7.8 µM	
N#C/C(=C\c1cccc(Oc2ccccc2)c1)C(=O)N1CCOCC1	8.86 µM	
COc1ccc(NC(=S)Nc2ccc3snnc3c2)cc1		-20.2% (inactive)
O=C(NCCCSc1ccccc1)c1cc(Br)ccc1O	7.37 µM	
O=S1(=O)C=C(Sc2nnc(-c3ccccc3)o2)c2ccccc21	3.57 µM	
O=C(/C=C/c1cccc(C(F)(F)F)c1)Nc1cccc(C(F)(F)F)c1	8.08 µM	
Cc1cccc(N=Nc2ccc(O)c3ncccc23)c1	2.25 µM	
O=C(OCc1ccccc1)c1ccc(NCc2cc(O)ccc2O)cc1	5.09 µM	
O=C(CCSc1ccc(Br)cc1)c1ccc(O)cc1	3.64 µM	
O=S(=O)(/C=C/c1ccccc1)NC1CCCCCCC1	1.18 µM	
OCCCn1c(C2CCCN2c2nc(-c3ccc(F)cc3)cs2)nc2cc(Cl)c(Cl)cc21 (stereo not given)	5.62 µM	
Cc1cccc(C)c1N=Nc1c(C)cc(O)cc1C	8.29 µM	
COc1ccc(C2=CC3=C(Br)C(=O)C(C)(OC(=O)c4ccco4)C(=O)C3=CO2)cc1 (stereo not given)	3 µM	
COc1ccc2c(c1)c(=Cc1ccc(N(C)C)cc1)c1cc(-c3ccccc3)[n+](C)n12	6.32 µM	
Cc1c(Cl)sn(-c2ccc(Cl)cc2)c1=O	< 0.195 µM	
O=C(O)c1ccccc1NC(c1ccccc1)c1ccc2cccnc2c1O (stereo not given)	4.87 µM	
CC(Oc1ccc(Cl)cc1)C(=O)NNC(=S)NC(=O)c1ccco1 (stereo not given)	1.94 µM	
CCC(=O)NC(c1cccs1)c1cc(Cl)c2cccnc2c1O (stereo not given)	3.73 µM	
O=C(Nc1ccccc1N1CCOCC1)c1ccc([N+](=O)[O-])s1	8.44 µM	
CCC(C)(C)n1nnnc1C(c1cccnc1)N1CCC(Cc2ccccc2)CC1 (stereo not given)	1.52 µM	
CCCCCCCCCCCCCCCC[N+](C)(C)C	8.6 µM	

Structure (SMILES)	AC50	activity change, negative = inhibition
CC1Oc2cc3oc4c(O)c(O)ccc4c(=O)c3c(O)c2C1(C)C (stereo not given)		-0.538% (inactive)
CCOC(=O)C1=C(Cc2ccc(Cl)cc2)C(=O)c2ccccc2C1=O		-104% (inactive)
Cc1ccc(N2C(=O)C3C4C=CC(CNC(=S)Nc5cccc(Cl)c5)(O4)C3C2=O)cc1 (stereo not given)	8.74 µM	
CN(O)C(=S)c1ccccc1	4.38 µM	
Cc1csc(CNc2ncnc3ccc(-c4cccc(Cl)c4)cc23)c1	8.17 µM	
CN1C(=O)C(N=Nc2ccc([N+](=O)[O-])cc2)SC1=S (stereo not given)	3.87 µM	
Oc1ccc(/C=C/c2ccc3cccc(O)c3n2)cc1Br	4.26 µM	
COc1cccc2c1C(=O)c1c(O)c3c(c(O)c1C2=O)CC(O)(C(=O)CO)CC3OC1CC(N(C)C)C(O)C(C)O1 (stereo not given)	1.09 µM	
CCOc1ccc(C(Nc2cccnc2)c2cc(Cl)c3cccnc3c2O)cc1 (stereo not given)	1.5 µM	
Cc1cc(C)cc(N2C(=O)C=CC2=O)c1	< 0.195 µM	
Clc1ccc2[nH]c3c(c2c1)CCc1cn[nH]c1-3	8.79 µM	
O=c1c2ccccc2nc(-c2ccc(-c3ccccc3)cc2)n1-c1ccncc1	5.21 µM	
O=C1C=CC(=O)N1c1ccc2ccccc2c1	0.568 µM	
CC(C)(C)C(=O)NCC12C=CC(O1)C1C(=O)N(c3ccccc3)C(=O)C12 (stereo not given)	5.05 µM	
O=C(Nc1ccccc1)c1nnsc1S(=O)c1ccc(Cl)cc1 (stereo not given)	< 0.195 µM	
Cn1c(/C=C/c2ccc([N+](=O)[O-])o2)nc2ccccc2c1=O	6 µM	
CCCCC(=O)NC(c1ccco1)c1cc(Cl)c2cccnc2c1O (stereo not given)	4.6 µM	
O=C1C(Cl)=C(NCCc2ccccc2)C(=O)c2ccccc21	0.556 µM	
O=c1cc2oc3cc(O)c(O)cc3c(-c3ccccc3[N+](=O)[O-])c-2cc1O	3.19 µM	
O=C(c1ccccc1)c1ccccc1N1C(=O)C=CC1=O	1.71 µM	
COc1ccc(C2=CC3=C(Br)C(=O)C(C)(OC(=O)c4cccs4)C(=O)C3=CO2)cc1 (stereo not given)	4.28 µM	
CCCCCCCCCCCCCCCC(=O)OC(CC(=O)O)C[N+](C)(C)C (stereo not given)	1.23 µM	

Source: PubChem BioAssay AID540268 (Broad Institute, 2011)
